These results are taken from patent US8501238B2, “Anti-infective agents and uses thereof” (priority 2007, dated 2013).

Assay [1] addresses T1, HCV polymerase 1A (Δ21 NS5B) (Hepatitis C virus genotype 1a, UniProt P27958).
T1 construct: 20 to 50nM Δ21 NS5B
Kind of assay: HCV Polymerase Inhibition Assay (1a). The class given is biochemical. The procedure, abridged:
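Δ21 NS5B reactions contained 20 μM CTP, 20 μM ATP, 1 μM ³H-UTP and 5 nM template RNA and ran for 2–4 h at room temperature. RNA was then spermine-precipitated, filter-captured and counted by scintillation. IC50 came from a tight-binding (Morrison) nonlinear fit of retained cpm against inhibitor concentration.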

Assay [2] concerns genotype 1b-Con1 subgenomic replicon cell line. Kind of assay: microbe, parasite or virus in culture. The class given is cell-based, HCV. Particulars: Hepatitis C virus, 72 h, read-out: EC50 1b.
For assay [3], the system named is genotype 1a-H77 subgenomic replicon cell line. Kind of assay: microbe, parasite or virus in culture. Particulars: Hepatitis C virus, 72 h, read-out: EC50 1a. Format: cell-based, HCV.
Assay [4] addresses T2, HCV polymerase 1B (Δ21 NS5B) (Hepatitis C virus genotype 1b, UniProt P26663).
T2 construct: 20 to 50nM Δ21 NS5B
Kind of assay: biochemical. The procedure, abridged:
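Inhibitor pre-incubated 15 min at room temperature with Δ21 NS5B (strain BK or H77, 20–50 nM), 60–125 μM GTP, 2 mM MnCl2, pH 7.4. Reaction started with 20 μM CTP, 20 μM ATP, 1 μM 3H-UTP and 5 nM template RNA, run 2–4 h at room temperature. Spermine-precipitated RNA filter-captured and scintillation-counted; IC50 from tight-binding equation fit.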

The structures appear in SMILES notation.

The IC50 is the concentration that inhibits the measured activity by half. As usually defined, the EC50 is the concentration at which the effect is half-maximal.

T1 sequence (P27958 2421-2990, stated change not applied): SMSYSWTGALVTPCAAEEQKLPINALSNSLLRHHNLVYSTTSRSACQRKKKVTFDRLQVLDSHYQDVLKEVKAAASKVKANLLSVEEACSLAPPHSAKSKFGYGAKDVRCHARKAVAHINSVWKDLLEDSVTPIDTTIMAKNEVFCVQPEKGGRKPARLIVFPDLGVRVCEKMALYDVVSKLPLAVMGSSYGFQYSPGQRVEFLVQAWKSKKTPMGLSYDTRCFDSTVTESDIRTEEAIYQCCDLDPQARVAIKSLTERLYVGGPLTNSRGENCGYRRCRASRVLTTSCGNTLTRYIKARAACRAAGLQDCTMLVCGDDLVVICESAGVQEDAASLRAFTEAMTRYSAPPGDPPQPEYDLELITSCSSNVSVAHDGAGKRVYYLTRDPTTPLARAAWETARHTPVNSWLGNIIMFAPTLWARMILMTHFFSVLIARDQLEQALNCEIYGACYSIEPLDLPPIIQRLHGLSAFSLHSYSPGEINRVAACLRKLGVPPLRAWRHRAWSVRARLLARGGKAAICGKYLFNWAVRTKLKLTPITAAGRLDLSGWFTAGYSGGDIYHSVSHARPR
T2 sequence (P26663 2420-2989, stated change not applied): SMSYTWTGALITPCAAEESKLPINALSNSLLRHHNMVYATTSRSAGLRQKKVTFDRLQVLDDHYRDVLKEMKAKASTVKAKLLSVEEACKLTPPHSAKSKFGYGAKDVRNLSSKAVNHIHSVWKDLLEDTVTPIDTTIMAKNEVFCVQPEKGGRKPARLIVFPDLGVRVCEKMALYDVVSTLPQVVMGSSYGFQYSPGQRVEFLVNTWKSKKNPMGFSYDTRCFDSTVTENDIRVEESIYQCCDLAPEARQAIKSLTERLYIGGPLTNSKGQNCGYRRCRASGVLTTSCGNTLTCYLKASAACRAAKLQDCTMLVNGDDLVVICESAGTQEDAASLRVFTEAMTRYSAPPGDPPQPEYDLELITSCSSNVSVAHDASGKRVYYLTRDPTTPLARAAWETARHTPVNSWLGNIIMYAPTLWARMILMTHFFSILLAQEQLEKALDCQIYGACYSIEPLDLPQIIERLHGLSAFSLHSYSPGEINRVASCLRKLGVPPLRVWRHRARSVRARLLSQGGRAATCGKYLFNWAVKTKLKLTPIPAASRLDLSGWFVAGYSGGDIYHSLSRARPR

For `COc1c(-c2ccc3c(c2)CCN3S(C)(=O)=O)cc(-n2ccc(=O)[nH]c2=O)cc1C(C)(C)C` [IB-L0-2.32, 1-(3-tert-butyl-4-methoxy-5-(1-(methylsulfonyl)indolin-5-yl)phenyl)pyrimidine-2,4(1H,3H)-dione], the IC50 in assay [1] and in assay [4] was 0.01 to 0.1 µM in each case. Besides, the EC50 in assay [2] is 0.01 to 0.1 µM; in assay [3], 0.1 to 1 µM.

With `COc1c(-c2ccc3ncsc3c2)cc(-n2ccc(=O)[nH]c2=O)cc1C(C)(C)C` [IB-L0-2.33, 1-(3-(benzo[d]thiazol-6-yl)-5-tert-butyl-4-methoxyphenyl)pyrimidine-2,4(1H,3H)-dione], the 50% inhibitory concentration (IC50) in assay [1] and in assay [4] was 0.01 to 0.1 µM each time. In addition, the EC50 in assay [2] and in assay [3] was 0.1 to 1 µM in each case.

With `COc1c(-c2ccc3nc(Cl)sc3c2)cc(-n2ccc(=O)[nH]c2=O)cc1C(C)(C)C` [IB-L0-2.38, 1-(3-tert-butyl-5-(2-chlorobenzo[d]thiazol-6-yl)-4-methoxyphenyl)pyrimidine-2,4(1H,3H)-dione], the IC50 fell in the range of 0.1 to 1 µM in assay [1] and 0.01 to 0.1 µM in assay [4]. The EC50 in assay [2] and in assay [3] was above 1 µM throughout.

For `COc1c(-c2ccc3c(c2)CC=C3C(C)(C)NS(C)(=O)=O)cc(-n2ccc(=O)[nH]c2=O)cc1C(C)(C)C` [IB-L0-2.41, N-(2-(6-(3-tert-butyl-5-(2,4-dioxo-3,4-dihydropyrimidin-1(2H)-yl)-2-methoxyphenyl)-1H-inden-3-yl)propan-2-yl)methanesulfonamide], the IC50 in assay [1] and in assay [4] was 0.1 to 1 µM each time. Also, the EC50 in assay [2] and in assay [3] was 0.1 to 1 µM in each case.

`COc1c(-c2ccc3c(C)coc3c2)cc(-n2ccc(=O)[nH]c2=O)cc1C(C)(C)C` [IB-L0-2.42, 1-(3-tert-butyl-4-methoxy-5-(3-methylbenzofuran-6-yl)phenyl)-pyrimidine-2,4(1H,3H)-dione]: the IC50 in assay [1] and in assay [4] was 0.1 to 1 µM in each case. For the same compound, the EC50 in assay [2] and in assay [3] was 0.1 to 1 µM each time.

`COc1c(-c2ccc3c(c2)CCN(NS(C)(=O)=O)C3)cc(-n2ccc(=O)[nH]c2=O)cc1C(C)(C)C` [IB-L0-2.43, N-(6-(3-tert-butyl-5-(2,4-dioxo-3,4-dihydropyrimidin-1(2H)-yl)-2-methoxyphenyl)-3,4-dihydroisoquinolin-2(1H)-yl)methanesulfonamide]: the IC50 in assay [1] and in assay [4] was 0.1 to 1 µM in each case. Further, the half-maximal effective concentration (EC50) in assay [2] is 0.1 to 1 µM; in assay [3], above 1 µM.

For `COc1c(-c2ccc3c(CNS(C)(=O)=O)noc3c2)cc(-n2ccc(=O)[nH]c2=O)cc1C(C)(C)C` [IB-L0-2.45], the IC50 in assay [1] and in assay [4] was 0.1 to 1 µM each time. Further, the EC50 in assay [2] was 0.1 to 1 µM; in assay [3], above 1 µM.

On to `COc1c(-c2ccc3c(c2)/C(=N/NS(C)(=O)=O)CC3)cc(-n2ccc(=O)[nH]c2=O)cc1-c1cccs1` [IB-L0-2.51, (E)-N′-(6-(5-(2,4-dioxo-3,4-dihydropyrimidin-1(2H)-yl)-2-methoxy-3-(thiophen-2-yl)phenyl)-2,3-dihydro-1H-inden-1-ylidene)methanesulfonohydrazide], for which the half-inhibitory concentration (IC50) in assay [1] was below 0.01 µM; in assay [4], 0.01 to 0.1 µM. Also, the values for the EC50 in assay [2] and in assay [3] were below 0.01 µM and 0.01 to 0.1 µM, respectively.

Regarding `CCC(C)(C)c1cc(-n2ccc(=O)[nH]c2=O)cc(-c2ccc3cc(NS(C)(=O)=O)ccc3c2)c1OC` [IB-L0-2.52, N-(6-(5-(2,4-dioxo-3,4-dihydropyrimidin-1(2H)-yl)-2-methoxy-3-tert-pentylphenyl)naphthalen-2-yl)methanesulfonamide], the IC50 in assay [1] was below 0.01 µM; in assay [4], 0.01 to 0.1 µM. Also, the EC50 was below 0.01 µM in assay [2] and 0.01 to 0.1 µM in assay [3].
